Read-outs that look alike come from different tables or passages of the source. One block for each compound: values may come before it. Non-standard residues stand in square brackets, D forms with d. Residues, ends and D or L forms follow the SMILES beside them. *: point of attachment. DOTA = O=C(O)CN1CCN(CC(=O)O)CCN(CC(=O)*)CCN(CC(=O)O)CC1; 1Nal = N[C@@H](Cc1cccc2ccccc12)C(=O)O; NMeNle = CCCC[C@H](NC)C(=O)O
Tests used:
[1] = in vivo stability studies in BALB/c mice; details: i.v.
Experimental: Metabolic studies evaluating the stability of the radioligands were carried out in 7- to 8-week-old female BALB/c mice. With the ^111In-labeled peptide derivatives, the studies were performed for the time point of 10 min p.i. (n = 2). With the ^177Lu-labeled peptide derivatives, additional studies were also carried out for the time point of 30 min and 60 min p.i. (n = 1 for each time point). To allow monitoring of the metabolites by analytical HPLC, the mice were injected with a higher amount of radioactivity (6–9 MBq indium-111, 30–45 MBq lutetium-177) corresponding to ∼1 nmol total peptide intravenously through a lateral tail vein. At different time points, the mice were euthanized by cervical dislocation and urine and a blood sample was collected. Liver and kidneys were excised and homogenized in 20 mM HEPES buffer pH 7.3. The amount of intact radiopeptide and the formation of metabolites was analyzed by analytical HPLC. Prior to injection into the HPLC system, all samples were treated as described for human serum and rat organ homogenate samples.

[2] = biodistribution in A431-CCK2R/A431-mock xenografted BALB/c nude mice; assay type: in vivo; details: female, athymic BALB/c nude, mouse, iv, 20 pmol, total radioactivity, 20 pmol, 4 h p.i.
Experimental: (§1) Biodistribution studies evaluating the tumor uptake of the radiolabeled peptides were performed in 7- to 9-week-old female athymic BALB/c nude mice (Charles River, Sulzfeld, Germany). For the induction of tumor xenografts, 150 μL of DMEM containing 2 × 10^6 A431-CCK2R and A431-mock cells were injected subcutaneously in the right and left flank of each mouse, respectively. And 10–14 days after injection, tumors reached a medium weight of ∼0.25 g. The mice were divided into groups of four and injected intravenously via a lateral tail vein with 0.2 MBq of ^111In-labeled compound (0.02 nmol) and 0.7 and 1.5 MBq of the ^177Lu-labeled compound (0.02 and 0.15 nmol). At 4 and 12 h p.i., the mice were sacrificed and the tumors and other tissues (blood, lung, heart, muscle, spleen, intestine, liver, kidneys, stomach, and pancreas) were removed, weighed, and their radioactivity measured in the γ counter together with the rest of the body. Initial biodistribution studies were performed with the three ^177Lu-labeled CCK2R-targeting ligands at an injected peptide amount of 20 pmol for the time point of 4 h p.i. From these studies, two peptide analogues were selected to further characterize the biodistribution profile also at a later time point of 12 h p.i. and at a higher injected peptide amount of 150 pmol. Additional animal studies were performed for the ^111In-labeled conjugates. Percentage of injected activity per gram tissue (%IA/g), tumor-to-organ activity ratios, as well as whole body activity were calculated for each sample and statistical analysis using independent two-population t-test (significance level p < 0.05) was performed using Origin software. For the comparison of more than two groups, data were analyzed using one-way analysis of variance (ANOVA) Holm–Bonferroni-adjusted post hoc analysis (significance level p < 0.05) using Microsoft Excel 2010 software (Microsoft Excel 2010, Microsoft Corporation, WA).

[3] = system: A431-CCK2R/A431-mock xenografts; assay: as above; assay type: in vivo
Experimental: as §1

[4] = log D, octanol/PBS distribution; assay type: physicochemical; details: 111In-labeled peptide
[5] = protein binding in human serum (Sephadex G-50 size-exclusion chromatography); assay type: in vitro ADME
Experimental: The protein binding in human serum (500 pmol/mL, n = 2) was assessed by Sephadex G-50 size-exclusion chromatography (GE Healthcare Illustra, Little Chalfont, U.K.) for up to 24 h.

[6] = 4 h after incubation, read-out: protein binding (%) 4 h (converted)
[7] = 24 h after incubation, read-out: protein binding (%) 24 h (converted)

intact radiopeptide in blood ([1]; 60 min p.i., n = 1): 63.5% | intact radiopeptide in kidneys ([1]; 60 min p.i., n = 1): 7.2% | intact radiopeptide in liver ([1]; 60 min p.i., n = 1): 35.6% | intact radiopeptide in urine ([1]; 60 min p.i., n = 1): 20.6% | tissue to tissue ratio at 4 h ([2]; A431-CCK2R xenograft tumor / blood, read-out: tumor-to-blood ratio): 709 ± 470 | tissue to tissue ratio at 4 h ([2]; A431-CCK2R xenograft tumor / kidney, read-out: tumor-to-kidney ratio): 4.52 ± 1.41 | tissue to tissue ratio at 4 h ([2]; A431-CCK2R xenograft tumor / liver, read-out: tumor-to-liver ratio): 58 ± 19.2 | tissue to tissue ratio at 4 h ([2]; A431-CCK2R xenograft tumor / stomach, read-out: tumor-to-stomach ratio): 6.49 ± 1.32 | tissue uptake at 4 h ([2]; A431-CCK2R xenograft tumor, read-out: tumor uptake in A431-CCK2R xenografts): 28.6 ± 7.95 %ID/g | tissue uptake at 4 h ([2]; A431-mock xenograft tumor, read-out: uptake in A431-mock xenografts): 0.25 ± 0.06 %ID/g | tissue uptake at 4 h ([2]; blood, read-out: uptake in blood): 0.06 ± 0.03 %ID/g | tissue uptake at 4 h ([2]; heart, read-out: uptake in heart): 0.08 ± 0.01 %ID/g | tissue uptake at 4 h ([2]; intestine, read-out: uptake in intestine): 0.95 ± 0.23 %ID/g | tissue uptake at 4 h ([2]; kidney, read-out: uptake in kidney): 6.61 ± 1.75 %ID/g | tissue uptake at 4 h ([2]; liver, read-out: uptake in liver): 0.52 ± 0.12 %ID/g | tissue uptake at 4 h ([2]; lung, read-out: uptake in lung): 0.17 ± 0.05 %ID/g | tissue uptake at 4 h ([2]; muscle, read-out: uptake in muscle): 0.09 ± 0.05 %ID/g | tissue uptake at 4 h ([2]; pancreas, read-out: uptake in pancreas): 1.78 ± 0.72 %ID/g | tissue uptake at 4 h ([2]; spleen, read-out: uptake in spleen): 0.19 ± 0.02 %ID/g | tissue uptake at 4 h ([2]; stomach, read-out: uptake in stomach): 4.73 ± 2.29 %ID/g
Structure (SMILES): CCCC[C@@H](C(=O)N[C@@H](CC(=O)O)C(=O)N[C@@H](Cc1cccc2ccccc12)C(N)=O)N(C)C(=O)[C@H](Cc1c[nH]c2ccccc12)NC(=O)[C@@H]1CCCN1C(=O)[C@H](Cc1ccc(O)cc1)NC(=O)[C@H](C)NC(=O)[C@@H](CCC(=O)O)NC(=O)CN1CCN(CC(=O)O)CCN(CC(=O)O)CCN(CC(=O)O)CC1 [[^177Lu]Lu-3, metal not drawn] ({DOTA}-[dE]AYPW[NMeNle]D[1Nal]-NH2)

intact radiopeptide in blood ([1]; 10 min p.i.): 82.3 ± 1.8% | intact radiopeptide in kidneys ([1]; 10 min p.i.): 30.2 ± 0.5% | intact radiopeptide in liver ([1]; 10 min p.i.): 73.9 ± 1.2% | intact radiopeptide in urine ([1]; 10 min p.i.): 30.3 ± 5.9%
Structure (SMILES): CCCC[C@@H](C(=O)N[C@@H](CC(=O)O)C(=O)N[C@@H](Cc1cccc2ccccc12)C(N)=O)N(C)C(=O)[C@H](Cc1c[nH]c2ccccc12)NC(=O)CNC(=O)[C@@H]1CCCN1C(=O)[C@H](Cc1ccc(O)cc1)NC(=O)[C@@H](CCC(=O)O)NC(=O)CN1CCN(CC(=O)O)CCN(CC(=O)O)CCN(CC(=O)O)CC1 [[^111In]In-2] [metal not drawn] ({DOTA}-[dE]YPGW[NMeNle]D[1Nal]-NH2)

intact radiopeptide in blood ([1]; 60 min p.i., n = 1): 79.1% | intact radiopeptide in kidneys ([1]; 60 min p.i., n = 1): 11.0% | intact radiopeptide in liver ([1]; 60 min p.i., n = 1): 74.5% | intact radiopeptide in urine ([1]; 60 min p.i., n = 1): 18.8% | tumor uptake in A431-CCK2R xenografts ([3]; 150 pmol, 4 h p.i.): 15.26 ± 6.84 % IA/g | tumor retention ([3]; A431-CCK2R xenografts, 12 h p.i. relative to 4 h p.i., 20 pmol): > 60% | reduction of tumor uptake in A431-CCK2R xenografts ([3]; injected peptide amount increased to 150 pmol vs 20 pmol, 4 h p.i.): about 50%
Structure (SMILES): CCCC[C@@H](C(=O)N[C@@H](CC(=O)O)C(=O)N[C@@H](Cc1cccc2ccccc12)C(N)=O)N(C)C(=O)[C@H](Cc1c[nH]c2ccccc12)NC(=O)CNC(=O)[C@@H]1CCCN1C(=O)[C@H](Cc1ccc(O)cc1)NC(=O)[C@@H](CCC(=O)O)NC(=O)CN1CCN(CC(=O)O)CCN(CC(=O)O)CCN(CC(=O)O)CC1 [[^177Lu]Lu-2] [metal not drawn] ({DOTA}-[dE]YPGW[NMeNle]D[1Nal]-NH2)

logD [4]: -1.75 | fraction unbound [5, 6]: 0.432 | fraction unbound [5, 7]: 0.466
Structure (SMILES): CCCC[C@@H](C(=O)N[C@@H](CC(=O)O)C(=O)N[C@@H](Cc1cccc2ccccc12)C(N)=O)N(C)C(=O)[C@H](Cc1c[nH]c2ccccc12)NC(=O)CNC(=O)[C@@H]1CCCN1C(=O)[C@H](Cc1ccc(O)cc1)NC(=O)[C@@H](CCC(=O)O)NC(=O)CN1CCN(CC(=O)O)CCN(CC(=O)O)CCN(CC(=O)O)CC1 [[^111In]In-2, metal not drawn] ({DOTA}-[dE]YPGW[NMeNle]D[1Nal]-NH2)

logD [4]: -2.03 | fraction unbound [5, 6]: 0.555 | fraction unbound [5, 7]: 0.472
Structure (SMILES): CCCC[C@@H](C(=O)N[C@@H](CC(=O)O)C(=O)N[C@@H](Cc1cccc2ccccc12)C(N)=O)N(C)C(=O)[C@H](Cc1c[nH]c2ccccc12)NC(=O)CNC(=O)[C@H](Cc1ccc(O)cc1)NC(=O)[C@@H]1CCCN1C(=O)[C@@H](CCC(=O)O)NC(=O)CN1CCN(CC(=O)O)CCN(CC(=O)O)CCN(CC(=O)O)CC1 [[^111In]In-1, metal not drawn] ({DOTA}-[dE]PYGW[NMeNle]D[1Nal]-NH2)

logD [4]: -2.05 | fraction unbound [5, 6]: 0.588 | fraction unbound [5, 7]: 0.54
Structure (SMILES): CCCC[C@@H](C(=O)N[C@@H](CC(=O)O)C(=O)N[C@@H](Cc1cccc2ccccc12)C(N)=O)N(C)C(=O)[C@H](Cc1c[nH]c2ccccc12)NC(=O)[C@@H]1CCCN1C(=O)[C@H](Cc1ccc(O)cc1)NC(=O)[C@H](C)NC(=O)[C@@H](CCC(=O)O)NC(=O)CN1CCN(CC(=O)O)CCN(CC(=O)O)CCN(CC(=O)O)CC1 [[^111In]In-3, metal not drawn] ({DOTA}-[dE]AYPW[NMeNle]D[1Nal]-NH2)
